Assay [1] addresses T1, Methylated-DNA--protein-cysteine methyltransferase (Homo sapiens) (UniProt P16455).
T1 sequence (whole entry): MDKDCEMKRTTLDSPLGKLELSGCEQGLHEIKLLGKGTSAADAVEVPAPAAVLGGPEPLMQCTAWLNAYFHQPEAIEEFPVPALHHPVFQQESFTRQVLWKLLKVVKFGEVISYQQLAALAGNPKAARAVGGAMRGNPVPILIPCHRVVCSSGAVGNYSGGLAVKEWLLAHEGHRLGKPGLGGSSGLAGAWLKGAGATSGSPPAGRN
The following applies: HT-29.
Description: AGT-inactivating activity was determined by 50% inactivation in HT-29 cell free extract upon incubation for 30 min

Assay [2] has as its target T1, Methylated-DNA--protein-cysteine methyltransferase (Homo sapiens). To be noted: HT-29. This is another data set of the same source.
Description: AGT-inactivating activity was determined by 50% inactivation in HT-29 cells upon incubation for 4 h

From ChEMBL document CHEMBL1128442, “8-Substituted O6-benzylguanine, substituted 6(4)-(benzyloxy)pyrimidine, and related derivatives as inactivators of human O6-alkylguanine-DNA alkyltransferase” (J Med Chem, 1995) come the findings set out here.

Consider `Nc1nc(OCc2ccccc2)c2[nH]nnc2n1`, for which the ED50 is 70 nM in assay [1] and 60 nM in assay [2].
For `CNc1nc(OCc2ccccc2)c2[nH]cnc2n1` the same measures were 160000 nM and 60000 nM.
Turning to `Oc1nc(OCc2ccccc2)c2[nH]c(O)nc2n1`, the values for the ED50 in assay [1] and in assay [2] were 25000 nM and 45000 nM, respectively.
For `Nc1nc(OCc2ccccc2)c2[nH]c(O)nc2n1` the same measures were 300 nM and 150 nM.
For the compound `Cc1nc2[nH]c(N)nc(OCc3ccccc3)c-2n1`, the ED50 came out at 300 nM in assay [1] and 100 nM in assay [2].
Consider `Nc1nc(OCc2ccccc2)c2[nH]c(Br)nc2n1`, for which the figures for the ED50 in assay [1] and in assay [2] were 80 nM and 60 nM, respectively.
Regarding `Nc1nc(OCc2ccccc2)c2[nH]c(N)nc2n1`, the ED50 amounted to 700 nM in assay [1] and 2000 nM in assay [2].
Taken in the same sequence, the figures for `Nc1nc(N)nc(OCc2ccccc2)n1` were 4000 nM and 1000 nM.
For `Nc1ncc([N+](=O)[O-])c(OCc2ccccc2)n1` the same measures were 400 nM and 50 nM.
Turning to `Nc1nc(N)c(Br)c(OCc2ccccc2)n1`, the ED50 in assay [1] is 2000 nM; in assay [2], 800 nM.
Taken in the same sequence, the figures for `CC(=O)Nc1nc(OCc2ccccc2)c2[nH]c(O)nc2n1` were 65000 nM and 11000 nM.
For `Oc1nc(OCc2ccccc2)c2[nH]cnc2n1` the same measures were 60000 nM and 35000 nM.
As for `Nc1cc(OCc2ccccc2)nc(N)n1`, the ED50 amounted to 15000 nM in assay [1] and 5000 nM in assay [2].
As for `Nc1ncnc(OCc2ccccc2)c1[N+](=O)[O-]`, the ED50 in assay [1] worked out at 28000 nM; in assay [2], 8000 nM.
Taken in the same sequence, the figures for `Fc1nc(OCc2ccccc2)c2[nH]cnc2n1` were 48000 nM and 12000 nM.
For the compound `Nc1nc(N)c(N)c(OCc2ccccc2)n1`, the ED50 was found to be 400 nM in assay [1] and 300 nM in assay [2].
`Nc1nc(N)c(N=O)c(OCc2ccccc2)n1`: the ED50 was 60 nM in assay [1] and 20 nM in assay [2].
Consider `Cc1nc(N)nc(OCc2ccccc2)c1[N+](=O)[O-]`, for which the ED50 stood at 400 nM in assay [1] and 60 nM in assay [2].
Taken in the same sequence, the figures for `Nc1nc(OCc2ccccc2)c2[nH]c(C(F)(F)F)nc2n1` were 400 nM and 250 nM.
For `CN(C)c1nc(OCc2ccccc2)c2[nH]cnc2n1` the same measures were 200000 nM and 110000 nM.
